Measured values reported in ChEMBL document CHEMBL4732128, “Methylsulfanylpyridine based diheteroaryl isocombretastatin analogs as potent anti-proliferative agents” (Eur J Med Chem, 2021).
Converted amounts (≈) assume the structure as drawn. The source made the active and inactive calls. No cut-off for these calls is given here.

What was measured:
[1] = test system: HT-29; test: Induction of cell cycle arrest in human HT-29 cells assessed as accumulation of cells at G2/M phase at 100 nM after 72 hrs by propidium iodide staining-based flow cytometric analysis; format: functional
[2] = test system: HeLa; test: Antiproliferative activity against human HeLa cells assessed as inhibition of cell growth after 72 hrs by XTT assay; format: functional, cell-based
[3] = test system: HL-60; test: Induction of cell cycle arrest in human HL-60 cells assessed as accumulation of cells at G2/M phase at 100 nM after 48 hrs by propidium iodide staining-based flow cytometric analysis; format: functional
[4] = Aqueous solubility of the compound in pH 7.0 phosphate buffer at 2 mg incubated for 72 hrs by shake flask method; format: physicochemical
[5] = test system: HL-60; test: Induction of apoptosis in human HL-60 cells assessed as increase in cell accumulation at sub-G0/G1 phase at 100 nM incubated for 72 hrs by propidium iodide staining based flow cytometry; format: functional
[6] = test system: HeLa; test: Induction of cell cycle arrest in human HeLa cells assessed as accumulation of cells at G0/G1 phase at 1 nM after 24 to 72 hrs by propidium iodide staining-based flow cytometric analysis; format: functional; details: time 24-72 hrs
[7] = test system: HEK293; test: Induction of apoptosis in human HEK293 cells; format: cell-based
[8] = test system: HL-60; test: Induction of cell cycle arrest in human HL-60 cells assessed as accumulation of cells at G2/M phase at 100 nM after 72 hrs by propidium iodide staining-based flow cytometric analysis; format: functional
[9] = test system: HeLa; test: Induction of apoptosis in human HeLa cells assessed as increase in cleaved PARP level at 1 uM after 24 to 48 hrs by Western blot analysis; format: functional, cell-based; details: time 24-48 hrs
[10] = test system: HeLa; test: Induction of cell cycle arrest in human HeLa cells assessed as accumulation of cells at G2/M phase at 100 nM after 72 hrs by propidium iodide staining-based flow cytometric analysis; format: functional
[11] = test system: HeLa; test: Induction of cell cycle arrest in human HeLa cells assessed as accumulation of cells at G2/M phase at 100 nM after 24 hrs by propidium iodide staining-based flow cytometric analysis; format: functional
[12] = test system: HT-29; test: Induction of cell cycle arrest in human HT-29 cells assessed as accumulation of cells at S phase at 1 nM after 24 to 72 hrs by propidium iodide staining-based flow cytometric analysis; format: functional; details: time 24-72 hrs
[13] = molecular target: Tubulin (Homo sapiens) (UniProt P68371+Q9H4B7+P0DPH7+P68366+Q13509+Q71U36+P04350+Q3ZCM7+P07437+P68363+Q9BQE3+Q6PEY2+Q13885+Q9BVA1+Q9BUF5); test: Induction of microtubule disruption in human HeLa cells at 1 uM measured after 24 hrs by immunofluorescence staining based confocal microscopic analysis; format: cell-based
[14] = test system: HL-60; test: Antiproliferative activity against human HL-60 cells assessed as inhibition of cell growth after 72 hrs by XTT assay; format: functional, cell-based; details: HL-60, 72 h
[15] = test system: HL-60; test: Induction of cell cycle arrest in human HL-60 cells assessed as accumulation of cells at G0/G1 phase at 1 nM after 24 to 72 hrs by propidium iodide staining-based flow cytometric analysis; format: functional; details: time 24-72 hrs
[16] = test system: HeLa; test: Induction of apoptosis in human HeLa cells assessed as accumulation of cells at sub-G0/G1 phase after 24 hrs by propidium iodide staining-based flow cytometric analysis; format: functional, cell-based
[17] = test system: HeLa; test: Induction of cell cycle arrest in human HeLa cells assessed as accumulation of cells at G2/M phase at 100 nM after 48 hrs by propidium iodide staining-based flow cytometric analysis; format: functional
[18] = test system: HeLa; test: Induction of cell cycle arrest in human HeLa cells assessed as accumulation of cells at G2/M phase at 1 nM after 24 to 72 hrs by propidium iodide staining-based flow cytometric analysis; format: functional; details: time 24-72 hrs
[19] = test system: HeLa; test: Induction of apoptosis in human HeLa cells assessed as increase in cell accumulation at sub-G0/G1 phase at 100 nM incubated for 24 hrs by propidium iodide staining based flow cytometry; format: functional
[20] = test system: HL-60; test: Induction of apoptosis in human HL-60 cells assessed as increase in cell accumulation at sub-G0/G1 phase at 100 nM incubated for 48 hrs by propidium iodide staining based flow cytometry; format: functional
[21] = test system: HEK293; test: Induction of mitotic arrest in human HEK293 cells; format: cell-based
[22] = test system: HT-29; test: Antiproliferative activity against human HT-29 cells assessed as inhibition of cell growth after 72 hrs by XTT assay; format: functional, cell-based; details: HT-29, 72 h
[23] = test system: HL-60; test: Induction of cell cycle arrest in human HL-60 cells assessed as accumulation of cells at G2/M phase at 1 nM after 24 to 72 hrs by propidium iodide staining-based flow cytometric analysis; format: functional; details: time 24-72 hrs
[24] = test system: HL-60; test: Induction of cell cycle arrest in human HL-60 cells assessed as accumulation of cells at Sub-G0/G1 phase at 1 nM after 24 to 72 hrs by propidium iodide staining-based flow cytometric analysis; format: functional; details: time 24-72 hrs
[25] = test system: HT-29; test: Induction of cell cycle arrest in human HT-29 cells assessed as accumulation of cells at Sub-G0/G1 phase at 1 nM after 24 to 72 hrs by propidium iodide staining-based flow cytometric analysis; format: functional; details: time 24-72 hrs
[26] = test system: HeLa; test: Induction of apoptosis in human HeLa cells assessed as increase in cell accumulation at sub-G0/G1 phase at 100 nM incubated for 72 hrs by propidium iodide staining based flow cytometry; format: functional
[27] = test system: HL-60; test: Induction of cell cycle arrest in human HL-60 cells assessed as accumulation of cells at G2/M phase at 100 nM after 24 hrs by propidium iodide staining-based flow cytometric analysis; format: functional
[28] = test system: HT-29; test: Induction of cell cycle arrest in human HT-29 cells assessed as accumulation of cells at G2/M phase at 1 nM after 24 to 72 hrs by propidium iodide staining-based flow cytometric analysis; format: functional; details: time 24-72 hrs
[29] = test system: HeLa; test: Induction of cell cycle arrest in human HeLa cells assessed as accumulation of cells at Sub-G0/G1 phase at 1 nM after 24 to 72 hrs by propidium iodide staining-based flow cytometric analysis; format: functional; details: time 24-72 hrs
[30] = test system: HL-60; test: Induction of cell cycle arrest in human HL-60 cells assessed as accumulation of cells at S phase at 1 nM after 24 to 72 hrs by propidium iodide staining-based flow cytometric analysis; format: functional; details: time 24-72 hrs
[31] = test system: HeLa; test: Induction of cell cycle arrest in human HeLa cells assessed as accumulation of cells at S phase at 1 nM after 24 to 72 hrs by propidium iodide staining-based flow cytometric analysis; format: functional; details: time 24-72 hrs
[32] = test system: HeLa; test: Induction of mitotic arrest in human HeLa cells assessed as increase in MPM-2 expression at 1 uM incubated for 24 to 48 hrs by Western blot analysis; format: functional, cell-based; details: time 24-48 hrs
[33] = test system: HeLa; test: Induction of apoptosis in human HeLa cells assessed as increase in cell accumulation at sub-G0/G1 phase at 100 nM incubated for 48 hrs by propidium iodide staining based flow cytometry; format: functional
[34] = test system: HT-29; test: Induction of cell cycle arrest in human HT-29 cells assessed as accumulation of cells at G0/G1 phase at 1 nM after 24 to 72 hrs by propidium iodide staining-based flow cytometric analysis; format: functional; details: time 24-72 hrs
[35] = test system: HT-29; test: Induction of cell cycle arrest in human HT-29 cells assessed as accumulation of cells at G2/M phase after 24 hrs by propidium iodide staining-based flow cytometric analysis; format: functional
[36] = test system: HeLa; test: Induction of cell cycle arrest in human HeLa cells assessed as accumulation of cells at G2/M phase after 24 hrs by propidium iodide staining-based flow cytometric analysis; format: functional
[37] = test system: HT-29; test: Induction of cell cycle arrest in human HT-29 cells assessed as accumulation of cells at G2/M phase at 100 nM after 48 hrs by propidium iodide staining-based flow cytometric analysis; format: functional
[38] = Inhibition of bovine brain tubulin polymerization incubated for 30 mins by turbidimetric assay; format: tissue-based, Bos taurus
[39] = test system: HT-29; test: Induction of cell cycle arrest in human HT-29 cells assessed as accumulation of cells at G2/M phase at 100 nM after 24 hrs by propidium iodide staining-based flow cytometric analysis; format: functional
[40] = test system: HT-29; test: Induction of cell cycle arrest in human HT-29 cells assessed as sum of Sub-G0/G1 and G2/M population at 1 uM after 48 hrs by propidium iodide staining based flow cytometry; format: functional
[41] = test system: HT-29; test: Induction of cell cycle arrest in human HT-29 cells assessed as sum of Sub-G0/G1 and G2/M population at 1 uM after 72 hrs by propidium iodide staining based flow cytometry; format: functional
[42] = test system: HT-29; test: Induction of apoptosis in human HT-29 cells assessed as increase in cell accumulation at sub-G0/G1 phase at 100 nM incubated for 48 hrs by propidium iodide staining based flow cytometry; format: functional
[43] = test system: HT-29; test: Induction of cell cycle arrest in human HT-29 cells assessed as sum of Sub-G0/G1 and G2/M population at 10 uM after 72 hrs by propidium iodide staining based flow cytometry; format: functional
[44] = test system: HT-29; test: Induction of apoptosis in human HT-29 cells assessed as increase in cell accumulation at sub-G0/G1 phase at 100 nM incubated for 72 hrs by propidium iodide staining based flow cytometry; format: functional
[45] = test system: HT-29; test: Induction of cell cycle arrest in human HT-29 cells assessed as sum of Sub-G0/G1 and G2/M population at 10 uM after 48 hrs by propidium iodide staining based flow cytometry; format: functional

C=C(c1cc(Cl)nc(SC)c1)c1ccc2c(c1)c(C=O)cn2C gave an Activity [1] of 15.1%, an IC50 [2] of 72 nM and an Activity [3] of 40.5%. For the same compound, the solubility thermodynamic at 72 h [4] was 6.3 µg/mL (≈ 18.4 µM), the Activity [5] was 32.6% and the Activity [6] was “inactive”. The Activity [7] was “Non-Toxic”, the Activity [8] was 22% and the Activity [9] was “Active”. For the same compound, the Activity [10] was 7.9%, the Activity [11] was 56.9% and the Activity [12] was “inactive”. The Activity [13] was “Active”, the IC50 [14] was 38 nM and the Activity [15] was “inactive”. The Activity [16] was “Active”, the Activity [17] was 30.4% and the Activity [18] was “inactive”. The Activity [19] was 25.2%, the Activity [20] was 20.9% and the Activity [21] was “Toxic”. The IC50 [22] was 876 nM, the Activity [23] was “inactive” and the Activity [24] was “inactive”. The Activity [25] was “inactive”, the Activity [26] was 59.1% and the Activity [27] was 80.1%. For the same compound, the Activity [28] was “inactive”, the Activity [29] was “inactive” and the Activity [30] was “inactive”. For the same compound, the Activity [31] was “inactive”, the Activity [32] was “Active” and the Activity [33] was 47.6%. For the same compound, the Activity [34] was “inactive”, the Activity [35] was “inactive” and the Activity [36] was “Active”. It also gave an Activity [37] of 11.8% and an IC50 [38] of 1600 nM.

CSc1cc(C(=NO)c2ccc3c(c2)c(C#N)cn3C)cc(Cl)n1 gave an Activity [1] of 4.7%, an IC50 [2] of 57 nM and an Activity [3] of 39.7%. For the same compound, the solubility thermodynamic at 72 h [4] was 5.1 µg/mL (≈ 14.3 µM), the Activity [5] was 33.1% and the Activity [6] was “inactive”. For the same compound, the Activity [7] was “Non-Toxic”, the Activity [8] was 23.3% and the Activity [9] was “Active”. The Activity [10] was 4.6%, the Activity [11] was 73.2% and the Activity [12] was “inactive”. The Activity [13] was “Active”, the IC50 [14] was 93 nM and the Activity [39] was 84.4%. For the same compound, the Activity [15] was “inactive”, the Activity [40] was 91.1% and the Activity [16] was “Active”. The Activity [17] was 46.9%, the Activity [41] was 39.1% and the Activity [18] was “inactive”. The Activity [19] was 15.7%, the Activity [20] was 22.7% and the Activity [42] was 28.1%. The Activity [21] was “Toxic”, the IC50 [22] was 195 nM and the Activity [23] was “inactive”. For the same compound, the Activity [24] was “inactive”, the Activity [25] was “inactive” and the Activity [26] was 83.3%. For the same compound, the Activity [27] was 77.4%, the Activity [43] was 40.7% and the Activity [28] was “inactive”. The Activity [29] was “inactive”, the Activity [44] was 64.7% and the Activity [30] was “inactive”. For the same compound, the Activity [45] was 92.1%, the Activity [31] was “inactive” and the Activity [32] was “Active”. The Activity [33] was 35.9%, the Activity [34] was “inactive” and the Activity [35] was “Active”. The Activity [36] was “Active”, the Activity [37] was 54.9% and the IC50 [38] was 200 nM.
